Read-outs that look alike come from different tables or passages of the source.
Experiments:
[1] = test system: SARS-CoV-2; test: Cytopathic effect protection assay (crystal violet) in Vero E6 cells; type: cell-based; details: Vero E6, 72 h
Description: In order to explore for the presence of anti-SARS-CoV-2 metabolites in M. polymorpha, we prepared crude extracts of two different M. polymorpha subspecies (subsp. ruderalis from Japan and subsp. polymorpha, from Spain). The anti-SARS-CoV-2 activity of the resulting crude extracts was tested in Vero E6 cell monolayers infected with the SARS-CoV-2 NL2020 strain (Figure 1A). Infection was carried out at a multiplicity of infection (MOI) of 0.001 for 72 h. In the absence of antiviral activity, SARS-CoV-2 infection triggers cell death of Vero E6 cells and results in loss of cell biomass in the well, which is readily visualized as a strong reduction in crystal violet staining (DMSO, Figure 1A). […] Thus, protective activity may be used as a rapid qualitative surrogate assay to facilitate identification of substances with antiviral potential.
Vero E6 or Huh7-ACE2 cell monolayers were inoculated (MOI = 0.001) in the presence of a wide range of two-fold dilutions of the crude, or partially purified extracts, or pure compounds and incubated for 72 h. Cytopathic effect and lack thereof was visualized by crystal violet staining, as previously described. Untreated and solvent-treated cells were included in each plate as controls. […] A minimum virus dose (10 infectious units/well; MOI 0.001 in 1e4 cells/well) capable of producing overt cytopathic effect was used. […]

[2] = test system: SARS-CoV-2; test: Cytopathic effect protection assay (crystal violet) in Huh7-ACE2 cells; type: cell-based; details: Huh7-ACE2, 72 h
Description: To confirm the antiviral potential of PheoA, a commercially available PheoA stock solution was serially diluted and mixed with a virus stock to inoculate Vero E6 and Huh7-ACE2 cells (human hepatoma cells expressing ACE2). Cells were fixed 72 h post-inoculation and stained with crystal violet to visualize the integrity of the cell monolayer.
Vero E6 or Huh7-ACE2 cell monolayers were inoculated (MOI = 0.001) in the presence of a wide range of two-fold dilutions of the crude, or partially purified extracts, or pure compounds and incubated for 72 h. Cytopathic effect and lack thereof was visualized by crystal violet staining, as previously described. Untreated and solvent-treated cells were included in each plate as controls. […] A minimum virus dose (10 infectious units/well; MOI 0.001 in 1e4 cells/well) capable of producing overt cytopathic effect was used. Lower virus doses produce visible plaques and complete absence of CPE coincides with the expected endpoint dilution, around 8-fold lower dilutions.

[3] = test system: SARS-CoV-2; test: Antiviral activity by immunofluorescence microscopy in Vero E6 cells; type: cell-based; details: for EC50: Severe acute respiratory syndrome coronavirus 2, Vero C1008, 48 h
Description: (§1) Vero E6, A549-ACE2 or Calu3 were seeded onto 96-well plates as described above and infected in the presence of the indicated compound dose (MOI = 0.01). Twenty-four hours post infection (48 h for Calu3 cells), cells were fixed for 20 min at room temperature with a 4% formaldehyde solution in PBS, washed twice with PBS and incubated with incubation buffer (3% BSA; 0.3% Triton X100 in PBS) for 1 h. A monoclonal antibody against the N protein was diluted in the incubation buffer (1:2000, v/v; Genetex HL344) and incubated with the cells for 1 h; after this time, cells were washed with PBS and subsequently incubated with a 1:500 (v/v) dilution of a goat anti-rabbit conjugated to Alexa 488 (Invitrogen-Carlsbad, Carlsbad, CA, USA). Nuclei were stained with DAPI (Life Technologies, Budapest, Hungary) as recommended by the manufacturer during the secondary antibody incubation. Cells were washed with PBS and imaged using an automated multimode reader Spark Cyto (TECAN-Grödig, Austria).
(§2) All the infection experiments were performed by mixing the virus and compound dilutions 1:1 (v/v) before addition to the target cells. In the time-of-addition experiments, Vero E6 cultures were inoculated (MOI from 0.5–1) for 1 h in the presence or absence of the compounds at 37 °C. Subsequently, virus-compound mixtures were left at all times, or removed and replaced with fresh 2% FBS complete media containing or not the tested compounds (see experimental scheme in Figure 7 for details). Cells were fixed 6 h post-inoculation.
(§3) Descriptive statistics were calculated using Microsoft Excel. One-way ANOVA and post hoc tests were calculated using IBM SPSS Software Package (version 26). EC50 and EC90 values were obtained employing the PROBIT regression method using IBM SPSS vs26, except for values in Table 1 that were calculated by graphic interpolation of individual curves.

[4] = test system: SARS-CoV-2; test: Antiviral activity by immunofluorescence microscopy in A549-ACE2 cells; type: cell-based; details: A549-ACE2, MOI 0.01, 48 h; for EC50: Severe acute respiratory syndrome coronavirus 2, A549-ACE2, 48 h
Description: as §1, §2, §3

[5] = test system: SARS-CoV-2; test: Antiviral activity by immunofluorescence microscopy in Calu3 cells; type: cell-based; details: Calu3, MOI 0.005, 48 h; for EC50: Severe acute respiratory syndrome coronavirus 2, Calu-3, 48 h
Description: as §1, §2, §3

[6] = test system: SARS-CoV-2; test: Antiviral activity by immunofluorescence microscopy, summary for Vero E6, A549-ACE2 and Calu3; type: cell-based; details: Severe acute respiratory syndrome coronavirus 2, all tested cell lines
Description: (§4) PheoA antiviral activity was further confirmed by immunofluorescence microscopy–to estimate virus propagation–and an MTT assay–to evaluate compound cytotoxicity. […] This dataset was used to determine effective concentrations (EC50 and EC90) and cytotoxicity indexes. The estimated EC50 and EC90 values were around 50 nM and 100 nM, respectively, with a wide therapeutic window in all tested cell lines (Table 1)
as §1

[7] = Cytotoxicity by MTT assay in Vero E6 cells; type: cell-based, Green Monkey; details: green monkey, Vero E6 cells; Vero-E6, MTT, 48 h
Description: (§5) Cell monolayers were seeded in 96-well plates. The day after cells were treated with a wide range of compound concentrations and forty-eight hours later they were subjected to an MTT assays using standard procedures. The CC50 values were graphically interpolated from dose–response curves obtained with three biological replicates.

[8] = Cytotoxicity by MTT assay in A549-ACE2 cells; type: cell-based; details: human
Description: as §5

[9] = Cytotoxicity by MTT assay in Calu3 cells; type: cell-based; details: human
Description: as §5

[10] = test system: Vero E6, A549-ACE2 and Calu3 cells; test: Cytotoxicity by MTT assay, summary for Vero E6, A549-ACE2 and Calu3; type: cell-based; details: all three models, assayed doses
Description: as §4, §5

[11] = test system: SARS-CoV-2; test: Extracellular viral RNA load by RT-qPCR in A549-ACE2 cells; type: cell-based; details: A549-ACE2, 48 h
[12] = test system: HCV; test: microbe, parasite or virus in culture; type: cell-based; details: Hepatitis C virus, Huh-7, 48 h
[13] = test system: hCoV-229E; test: microbe, parasite or virus in culture; type: cell-based; details: Human coronavirus 229E, Huh-7, 48 h
[14] = test system: West Nile Virus; test: microbe, parasite or virus in culture; type: cell-based; details: Huh-7, 48 h
[15] = test system: vesicular stomatitis virus (VSV-GFP); test: microbe, parasite or virus in culture; type: cell-based; details: Huh-7
[16] = test system: vesicular stomatitis virus (VSV-GFP); test: microbe, parasite or virus in culture; type: cell-based; details: A549-ACE2
[17] = test system: SARS-CoV-2; test: Combination treatment of PheoA with RMDV in Vero E6 cells, immunofluorescence microscopy; type: cell-based; details: Severe acute respiratory syndrome coronavirus 2, Vero C1008, 24 h, read-out: EC50 of individual treatment
Description: Thus, combination treatments were performed with increasing doses of PheoA and RMDV. Drugs were mixed in different proportions, combined with infectious SARS-CoV-2 (MOI = 0.01) and the mixtures were used to inoculate Vero E6 cells. Twenty-four hours later, cells were fixed and processed to determine the infection efficiency as using immunofluorescence microscopy. […] Increasing concentrations of PheoA improved RMDV efficacy and viceversa.
Synergy analysis was carried out in the web-based platform Synergy Finder (https://synergyfinder.fimm.fi/, accessed on 25 September 2021).

[18] = test system: SARS-CoV-2; test: Time-of-addition experiment in Vero E6 cells (single-cycle infection); type: cell-based; details: for efficacy when added during the virus entry phase (in words): versus maintained at all times
Description: Next, antiviral efficacy of PheoA was compared when PheoA was (i) present at all times, (ii) added only during virus inoculation, or (iii) added only after virions had effectively penetrated the cells in single-cycle infection experiments ([…]).
as §2

[19] = test system: retroviral vectors pseudotyped with SARS-CoV-2 Spike protein (SARS2pp); type: cell-based
[20] = test system: retroviral vectors pseudotyped with VSV glycoprotein (VSVpp); type: cell-based
[21] = test system: SARS-CoV-2 virions; test: Virucidal assay: pre-incubation of virions, residual infectivity titer by TCID50; type: cell-based; details: for virus infectivity after pre-incubation (in words): 340 nM
[22] = test system: Huh7 cells; details: Huh7, 48 h
[23] = test system: SARS-CoV-2; test: Viral RNA load by RT-qPCR in Vero E6 cells; type: cell-based; details: 25 µM, Vero E6, MOI 0.001, 72 h post infection
[24] = test system: SARS-CoV-2; details: monolayers protected down to this concentration; read-out: reported EC50; cited from earlier work
[25] = test system: Vero E6 cells; test: Cytotoxicity by MTT assay in Vero E6 cells; type: cell-based, Green Monkey; details: Vero E6, MTT, parallel cultures
Description: as §5

[26] = mean ± SD n = 3, graphic interpolation
[27] = Vero E6, MOI 0.005, 48 h, PROBIT regression

With `C=Cc1c(C)c2cc3nc(c4c5[nH]c(cc6nc(cc1[nH]2)C(C)=C6CC)c(C)c5C(=O)[C@@H]4C(=O)OC)[C@@H](CCC(=O)O)[C@@H]3C` [PheoA, Pheophorbide a] the “concentration with consistent protective capacity” value [1] was “above 65 nM”, the “concentration with consistent protective capacity” value [2] was “above 65 nM” and the EC50 ([3]; Vero-E6, MOI 0.005, 48 h, mean ± SD n = 3, graphic interpolation) was 54 ± 13 nM. It also gave an EC90 ([3]; Severe acute respiratory syndrome coronavirus 2, Vero C1008, Vero-E6, MOI 0.005, 48 h, mean ± SD n = 3) of 106 ± 16 nM, an EC50 [4, 26] of 62 ± 25 nM and an EC90 ([4]; Severe acute respiratory syndrome coronavirus 2, mean ± SD n = 3) of 201 ± 84 nM. For the same compound, the EC50 [5, 26] was 35 ± 20 nM, the EC90 ([5]; Severe acute respiratory syndrome coronavirus 2, Calu-3, mean ± SD n = 3) was 98 ± 8 nM and the EC50 ([6]; read-out: estimated EC50) was ~50 nM. The EC90 ([6]; read-out: estimated EC90) was ~100 nM, the CC50 at 48 h [7] was > 8420 nM and the CC50 at 48 h [8] was 2600 ± 500 nM. The CC50 at 48 h [9] was > 8420 nM, the “cytotoxicity (in words)” value [10] was “no cytotoxicity was observed” and the “viral RNA accumulation (in words)” value ([11]; increasing concentrations) was “reduced viral RNA accumulation in a dose-dependent manner”. It also gave an EC50 [12] of 300 nM, an EC50 [13] of 128 nM and an EC50 [14] of 64 nM. The EC50 [15] was 506 nM, the EC50 [16] was 578 nM and the EC50 [17] was 40 nM. The “antiviral activity when maintained at all times (in words)” value (from here on “antiviral activity when maintained”) ([18]; Vero E6, MOI 5, 6 h) was “expected antiviral activity”, the “efficacy when added during the virus entry phase (in words)” value ([18]; Vero E6, MOI 5, 6 h) was “nearly identical” and the “efficacy when added after virion internalization” value ([18]; Vero E6, MOI 5, fixed 6 h post-inoculation) was “ca. 6 % of the maximum efficacy”. The “maximum reduction of infection efficiency” value ([19]; maximum dose 675 nM, 48 h) was ≤ 40%, the “maximum reduction of infection efficiency” value [20] was ≤ 40% and the “virus infectivity after pre-incubation (in words)” value (shortened to “virus infectivity … (in words)”) ([21]; 30 min) was “reduced partially”. For the same compound, the “virus infectivity … (in words)” value ([21]; 60 min) was “below detection limits”, the “virus infectivity … (in words)” value ([21]; up to 15 min, room temperature) was “did not have any significant impact on virus infectivity” and the “dose giving statistically significant reduction in remaining virus infectivity” value ([21]; 30 min pre-incubation, 10^5 TCID50/mL, room temperature) was “above 67 nM”. The “cytotoxicity (in words)” value [22] was “no cytotoxicity was observed”.

With `CCC(CC)COC(=O)[C@H](C)N[P@](=O)(OC[C@H]1O[C@@](C#N)(c2ccc3c(N)ncnn23)[C@H](O)[C@@H]1O)Oc1ccccc1` [RMDV, Remdesivir] the “viral RNA load” value [23] was “undetectable”, the “reduction of extracellular viral RNA” value ([11]; 5 µM) was “two orders of magnitude” and the EC50 [17] was 2000 nM. The “antiviral activity when maintained” value ([18]; Vero E6, MOI 5, 6 h) was “highly effective at reducing infection efficiency” and the EC50 [24] was 1500 nM.

`C=Cc1c(C)c2cc3nc(c4c5[nH]c(cc6nc(cc1[nH]2)C(C)=C6CC)c(C)c5C(=O)[C@@H]4C(=O)OC)[C@@H](CCC(=O)O)[C@@H]3C` [Semi-synthetic PheoA, Pheophorbide a] gave an EC50 [3, 27] of 51 nM, an EC50 ([4]; PROBIT regression) of 74 nM and an EC50 ([5]; PROBIT regression) of 38 nM.

In the case of `Cc1ccc(NC(=O)c2ccc(CN3CCN(C)CC3)cc2)cc1Nc1nccc(-c2cccnc2)n1` [imatinib, Imatinib], the “efficacy when added after virion internalization (in words)” value ([18]; 15 µM, Vero E6, MOI 5, 6 h) is reported as “greatly lost efficacy”, the “antiviral activity when maintained” value ([18]; Vero E6, MOI 5, 6 h) is reported as “expected antiviral activity” and the “efficacy when added during the virus entry phase (in words)” value ([18]; Vero E6, MOI 5, 6 h) is reported as “comparable efficacy”. For the same compound, the “entry inhibition (in words)” value ([19]; 15 µM) was “selectively inhibited SARS2pp” and the “entry inhibition (in words)” value ([20]; 15 µM) was “not VSVpp entry”.

With `C=Cc1c(C)c2cc3nc(c4c5[nH]c(cc6nc(cc1[nH]2)C(C)=C6CC)c(C)c5C(=O)C4)[C@@H](CCC(=O)O)[C@@H]3C` [pPheoA, pyropheophorbide a] the EC50 [3, 27] was 185 nM and the “cytotoxicity (in words)” value [25] was “absence of measurable cytotoxicity”.

Source: PMC8538351 (Pharmaceuticals, 2021)
